Tests used:
[1] = test system: SNU16 cells; assay: SNU16 Cancer Cell Line Proliferation Assay; format: cell-based; conditions: Homo sapiens; SNU-16 cells
Method in brief: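 SNU16 cells were seeded, held 24 h at 37 degrees, then dosed with an 11-point 3-fold dilution series prepared from a 10 mM DMSO stock. After 96 h incubation, viability was read by CellTiter Glo luminescence.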

[2] = target: FGFR2 (Homo sapiens (Human), UniProt P21802); assay: FGFR2 Biochemical Caliper Assay
Procedure: Compounds of the present invention were also tested in a FGFR2 Biochemical Caliper Assay. Compounds were prepared in 10 mM DMSO solution and serially diluted into 11 concentrations by 3-fold dilution. […] 5 uL of ATP solution (100 uM) was added to start the reaction and the plate was incubated for 90 minutes, then 70 uL of stopping buffer (0.5M EDTA) was added to terminate the reaction. Each well was analyzed using EZ reader.

Sequence of FGFR2 (P21802 22-821): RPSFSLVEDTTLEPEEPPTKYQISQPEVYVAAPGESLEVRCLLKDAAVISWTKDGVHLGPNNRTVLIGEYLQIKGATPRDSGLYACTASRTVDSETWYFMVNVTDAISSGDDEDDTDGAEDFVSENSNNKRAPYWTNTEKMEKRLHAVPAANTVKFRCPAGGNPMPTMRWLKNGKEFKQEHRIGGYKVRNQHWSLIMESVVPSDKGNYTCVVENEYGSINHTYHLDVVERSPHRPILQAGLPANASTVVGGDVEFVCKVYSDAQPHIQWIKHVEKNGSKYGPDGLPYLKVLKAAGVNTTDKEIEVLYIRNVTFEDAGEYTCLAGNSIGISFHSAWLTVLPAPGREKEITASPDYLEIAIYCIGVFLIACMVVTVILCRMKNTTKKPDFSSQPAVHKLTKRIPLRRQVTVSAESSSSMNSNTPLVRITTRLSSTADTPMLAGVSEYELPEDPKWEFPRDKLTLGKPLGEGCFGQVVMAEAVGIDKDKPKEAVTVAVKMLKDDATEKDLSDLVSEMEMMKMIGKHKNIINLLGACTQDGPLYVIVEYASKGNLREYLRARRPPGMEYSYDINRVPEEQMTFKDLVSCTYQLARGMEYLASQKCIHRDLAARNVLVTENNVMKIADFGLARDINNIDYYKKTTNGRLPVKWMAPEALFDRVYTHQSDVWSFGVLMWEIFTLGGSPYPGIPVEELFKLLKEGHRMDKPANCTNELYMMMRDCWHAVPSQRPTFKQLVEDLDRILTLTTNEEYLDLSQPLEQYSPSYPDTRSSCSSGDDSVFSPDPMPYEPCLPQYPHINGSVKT

IC50 [1] [µM]	IC50 [2] [µM]	SMILES
0.1 to 0.25	0.1 to 0.25	C=CC(=O)N1CCC(n2cc(-c3c(-c4ccc(Oc5ccccn5)c(OC)c4)c4c(N)ncnc4n3C)cn2)CC1C (stereo not drawn) [Example 664]
0.1 to 0.25	0.1 to 0.25	C=CC(=O)N1CC=C(c2c(-c3ccc(Oc4cccc(C)n4)c(OC)c3)c3c(N)ncnc3n2C)C1 [Example 667]
0.25 to 1	0.25 to 1	C=CC(=O)N1CCC(n2cc(-c3c(-c4ccc(Oc5ccccn5)c(OC)c4)c4c(N)ncnc4n3C)cn2)CC1 [Example 669]
0.25 to 1	0.25 to 1	C=CC(=O)N1CCC(c2c(-c3ccc(Oc4cccc(C)n4)c(OC)c3)c3c(N)ncnc3n2C)C1 (stereo not drawn) [Example 670]
0.25 to 1	0.1 to 0.25	C=CC(=O)N1CCC(n2cc(-c3c(-c4ccc(Oc5cccc(C)c5)c(OC)c4)c4c(N)ncnc4n3C)cn2)CC1 [Example 672]
≤ 0.1	< 0.1	C=CC(=O)N1CCC(n2ncc(-c3c(-c4ccc(Oc5cccc(C)n5)c(OC)c4)c4c(N)ncnc4n3C)c2C)CC1 [Example 673]
≤ 0.1	< 0.1	C=CC(=O)N1CC=C(c2c(-c3ccc(Oc4ncccn4)c(OC)c3)c3c(N)ncnc3n2C)CC1 [Example 674]
1 to 100	0.25 to 1	C=CC(=O)N1CCC(c2c(-c3ccc(Oc4ccccn4)c(OC)c3)c3c(N)ncnc3n2C)C1 (stereo not drawn) [Example 675]
≤ 0.1	< 0.1	C=CC(=O)N1CC=C(c2c(-c3ccc(Oc4ccccn4)c(OC)c3)c3c(N)ncnc3n2C)CC1 [Example 676]
≤ 0.1	< 0.1	C=CC(=O)N1CC=C(c2c(-c3ccc(Oc4cc(C)ccn4)c(OC)c3)c3c(N)ncnc3n2C)CC1 [Example 677]
≤ 0.1	< 0.1	C=CC(=O)N1CC=C(c2c(-c3ccc(Oc4ccc(C)cn4)c(OC)c3)c3c(N)ncnc3n2C)CC1 [Example 683]
1 to 100	1 to 100	C=CC(=O)N1CCC(n2nc(-c3c(-c4ccc(Oc5cccc(C)n5)c(OC)c4)c4c(N)ncnc4n3C)cc2C)CC1 [Example 684]
1 to 100	1 to 100	C=CC(=O)N1CCC(c2c(-c3ccc(Oc4ccc(C)nc4)c(OC)c3)c3c(N)ncnc3n2C)C1 (stereo not drawn) [Example 685]

Continued, molecule first:

SMILES	IC50 [1] [µM]	IC50 [2] [µM]
C=CC(=O)NC1CCC(c2c(-c3ccc(Oc4cccc(C)n4)cc3)c3c(N)ncnc3n2C)CC1 (stereo not drawn) [Example 662]	0.25 to 1	0.1 to 0.25
C=CC(=O)N1CCCC(c2c(-c3ccc(Oc4cccc(C)n4)cc3)c3c(N)ncnc3n2C)C1 (stereo not drawn) [Example 663]	0.25 to 1	0.25 to 1
C=CC(=O)N1CCC=C(c2c(-c3ccc(Oc4cccc(C)n4)cc3)c3c(N)ncnc3n2C)C1 [Example 665]	0.25 to 1	0.1 to 0.25
C=CC(=O)N1CC=C(c2c(-c3ccc(Oc4cccc(C)n4)cc3)c3c(N)ncnc3n2C)C1 [Example 666]	≤ 0.1	< 0.1
C/C=C(\C#N)C(=O)N1CCC(n2cc(-c3c(-c4ccc(Oc5cccc(C)n5)cc4)c4c(N)ncnc4n3C)cn2)CC1 [Example 668]	1 to 100	< 0.1
C/C(=C\CN(C)C)C(=O)N1CC(n2cc(-c3c(-c4ccc(Oc5cccc(C)n5)cc4)c4c(N)ncnc4n3C)cn2)C1 [Example 671]	1 to 100	0.25 to 1
C=CC(=O)N1CC=C(c2c(-c3ccc(Oc4cncc(C)c4)c(OC)c3)c3c(N)ncnc3n2C)CC1 [Example 678]	0.1 to 0.25	< 0.1
C=CC(=O)N1CC=C(c2c(-c3ccc(Oc4ncccn4)cc3)c3c(N)ncnc3n2C)CC1 [Example 680]	≤ 0.1	< 0.1
C=CC(=O)N1CC=C(c2c(-c3ccc(Oc4ccccn4)cc3)c3c(N)ncnc3n2C)CC1 [Example 681]	≤ 0.1	< 0.1
C=CC(=O)N1CCC(c2c(-c3ccc(Oc4ncccn4)cc3)c3c(N)ncnc3n2C)C1 (stereo not drawn) [Example 682]	≤ 0.1	0.1 to 0.25
C=CC(=O)N1CC=C(c2c(-c3ccc(Oc4ncccn4)cc3)c3c(N)ncnc3n2C)C1 [Example 686]	≤ 0.1	< 0.1
